Experimental data published in ChEMBL document CHEMBL5724796, “Tm Shift (DSF) assay results for EUbOPEN Chemogenomics Library” (2024).
Residues, ends and D or L forms follow the SMILES beside them. *: point of attachment. Boc = CC(C)(C)OC(=O)*; CH2Cl = ClC*

Legend:
Peregrin (Homo sapiens) = target: T1, Peregrin (Homo sapiens) (UniProt P55201); conditions: Compound concentration 20.0 uM
T1 sequence (whole entry): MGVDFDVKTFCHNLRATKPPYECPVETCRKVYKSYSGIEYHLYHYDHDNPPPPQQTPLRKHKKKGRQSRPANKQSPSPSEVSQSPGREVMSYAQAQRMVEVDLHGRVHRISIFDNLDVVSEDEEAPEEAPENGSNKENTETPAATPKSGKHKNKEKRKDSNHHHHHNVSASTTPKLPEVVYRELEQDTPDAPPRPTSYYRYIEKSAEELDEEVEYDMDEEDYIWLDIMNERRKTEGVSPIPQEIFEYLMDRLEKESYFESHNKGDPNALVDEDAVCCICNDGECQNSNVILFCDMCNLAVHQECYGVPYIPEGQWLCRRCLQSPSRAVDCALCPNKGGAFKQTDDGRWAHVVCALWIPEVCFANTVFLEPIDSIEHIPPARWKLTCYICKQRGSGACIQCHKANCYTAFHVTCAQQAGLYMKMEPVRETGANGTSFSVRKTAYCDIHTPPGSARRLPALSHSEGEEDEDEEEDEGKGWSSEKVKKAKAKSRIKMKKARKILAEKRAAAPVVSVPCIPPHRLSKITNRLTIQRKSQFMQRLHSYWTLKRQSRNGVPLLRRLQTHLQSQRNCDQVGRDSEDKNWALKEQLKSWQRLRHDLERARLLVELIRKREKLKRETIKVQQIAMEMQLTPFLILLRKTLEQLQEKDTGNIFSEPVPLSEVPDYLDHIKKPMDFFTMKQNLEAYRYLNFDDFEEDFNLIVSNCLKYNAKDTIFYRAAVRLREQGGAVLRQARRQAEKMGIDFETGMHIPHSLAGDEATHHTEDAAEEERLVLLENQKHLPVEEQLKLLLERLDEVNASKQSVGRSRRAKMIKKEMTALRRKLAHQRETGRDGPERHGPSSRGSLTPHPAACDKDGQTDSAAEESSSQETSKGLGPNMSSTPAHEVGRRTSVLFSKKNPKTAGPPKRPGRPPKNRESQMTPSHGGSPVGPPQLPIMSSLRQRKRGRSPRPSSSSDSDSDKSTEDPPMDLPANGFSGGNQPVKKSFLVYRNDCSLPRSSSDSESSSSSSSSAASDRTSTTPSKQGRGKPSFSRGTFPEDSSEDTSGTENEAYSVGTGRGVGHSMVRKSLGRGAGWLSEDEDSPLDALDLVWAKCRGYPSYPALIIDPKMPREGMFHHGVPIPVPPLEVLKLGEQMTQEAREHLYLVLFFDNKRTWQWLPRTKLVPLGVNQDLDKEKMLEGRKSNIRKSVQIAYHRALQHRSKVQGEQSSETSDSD

[1] = target: Fibroblast growth factor receptor 2 (Homo sapiens) (UniProt P21802); conditions: Compound concentration 20.0 uM
Chain of Fibroblast growth factor receptor 2 (Homo sapiens) (P21802 22-821 limits assumed): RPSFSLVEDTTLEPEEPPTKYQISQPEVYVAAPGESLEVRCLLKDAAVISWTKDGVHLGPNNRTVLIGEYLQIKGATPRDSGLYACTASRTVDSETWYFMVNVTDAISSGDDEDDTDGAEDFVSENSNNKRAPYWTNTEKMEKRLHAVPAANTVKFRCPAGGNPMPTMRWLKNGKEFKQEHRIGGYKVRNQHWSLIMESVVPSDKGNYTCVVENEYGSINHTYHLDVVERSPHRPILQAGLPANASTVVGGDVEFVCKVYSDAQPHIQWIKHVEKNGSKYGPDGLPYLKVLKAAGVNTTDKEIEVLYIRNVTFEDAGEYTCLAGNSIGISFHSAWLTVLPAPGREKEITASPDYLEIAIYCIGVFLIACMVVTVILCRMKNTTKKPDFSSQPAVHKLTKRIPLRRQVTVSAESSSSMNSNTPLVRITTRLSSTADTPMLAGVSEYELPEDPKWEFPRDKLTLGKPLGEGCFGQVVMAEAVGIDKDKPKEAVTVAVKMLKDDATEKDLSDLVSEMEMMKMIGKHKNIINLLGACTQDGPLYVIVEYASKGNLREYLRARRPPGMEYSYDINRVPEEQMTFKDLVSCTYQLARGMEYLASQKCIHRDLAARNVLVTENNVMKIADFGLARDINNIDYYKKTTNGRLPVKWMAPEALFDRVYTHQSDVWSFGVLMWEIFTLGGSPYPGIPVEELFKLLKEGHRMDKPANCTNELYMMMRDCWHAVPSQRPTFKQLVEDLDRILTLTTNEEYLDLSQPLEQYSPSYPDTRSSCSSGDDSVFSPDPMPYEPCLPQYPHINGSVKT
Description: Thermal Shift Assay. Domain: start/stop: T457-E768

Row | Structure (SMILES) | ΔTm (Peregrin (Homo sapiens)) | ΔTm [1]
1 | O=c1c2nnc(C3CCOCC3)n2cc(Br)n1CC1CCCC1 | -0.41 °C | -0.26 °C
2 | CCCC1O[C@@H]2C[C@H]3[C@@H]4CCC5=CC(=O)C=C[C@]5(C)[C@H]4[C@@H](O)C[C@]3(C)[C@]2(C(=O)CO)O1 (stereo partly drawn) | -1.04 °C | -0.77 °C
3 | O=C(Oc1cccc(F)c1OC(=O)c1cccc(O)c1)c1cccc(O)c1 | 3.01 °C | 0.56 °C
4 | CC(=O)Nc1ccc(-c2cc(-c3ccccc3)nc3cc(C(=O)NCCCn4ccnc4)nn23)cc1 | -0.4 °C | 0.21 °C
5 | CC(=O)N[C@@H](Cc1ccccc1)C(=O)N[C@@H](CC(C)C)C(=O)N[C@H](C(=O)N[C@@H](CC(=O)O)C(=O)CCl)[C@@H](C)O (Ac-FLTD-CH2Cl) | -1.18 °C | 0.77 °C
6 | C=CC(=O)Nc1cccc(-c2c[nH]cc2CN(C)CCN)c1 | -1.04 °C | 0.24 °C
7 | CN1CCN(c2nc(-c3ccc(C(=O)NC4(C(=O)NCC#N)CCCCC4)cc3)cs2)CC1 | -1.32 °C | 0.15 °C
8 | Cc1cnc(-c2ccccc2C(C)C)nc1NCc1ccc(-n2ccnn2)cc1 | -1.14 °C | -0.47 °C
9 | NC(=O)c1cc(F)cc2c1C(=O)N(C1CCN(C3CCC(F)(F)CC3)CC1)C2 | -0.15 °C | -0.03 °C
10 | N[C@@H](CC(=O)Nc1ccc(Oc2cc(F)c(F)cc2Br)cc1)C(=O)O | 0.59 °C | -0.01 °C
11 | CCS(=O)(=O)N1CCC([C@@H](C)n2c(C)c(C(=O)NCc3c(OC)cc(C)[nH]c3=O)c3ccccc32)CC1 | -1.1 °C | 0.02 °C
12 | CNc1cc(-c2cccc(Cl)c2Cl)nc(N)n1 | 0.7 °C | -0.72 °C
13 | CC(=O)N[C@@H](CC(C)C)C(=O)N[C@@H](CCC(=O)O)C(=O)N[C@H](C(=O)N[C@H](C=O)CC(=O)O)C(C)C (Ac-LEVD-aldehyde) | -1.25 °C | 0.88 °C
14 | CNCC[C@@H](Oc1ccccc1C)c1ccccc1 | -1.53 °C | 0.34 °C
15 | C[C@H](c1nc2c(cnn2C2CCOCC2)c(=O)[nH]1)N1CC(Oc2ccccc2)C1 | 2.25 °C | -0.05 °C
16 | CC(C)[C@H](NC(=O)[C@H](CCC(=O)O)NC(=O)[C@H](C)NC(=O)OC(C)(C)C)C(=O)N[C@H](C=O)CC(=O)O (Boc-AEVD-aldehyde) | -1.27 °C | 0.45 °C
17 | O=C(O)c1cccc(-c2ccc(-c3cn(C(=O)N4CCCCC4Cc4ccccc4)nn3)cc2)c1 (stereo not drawn) | -2.81 °C | -0.39 °C
18 | COCc1nc2cnc3cc(-c4c(C)noc4C)c(OC[C@H]4CCNC4)cc3c2n1[C@H](C)c1ccccc1 | 0.65 °C | 0.01 °C
19 | CC(C)(C)OC(=O)N1CCN(C(=O)n2cc(-c3ccc(OC(F)(F)F)cc3)nn2)C(Cc2ccccc2)C1 (stereo not drawn) | 0.21 °C | -0.77 °C
20 | O=C(NNc1ccccn1)c1ccccn1 | 0.74 °C | 0.02 °C
21 | O=C(NCC1(c2nc(-c3ccccc3)cs2)CCOCC1)c1cccc(-c2noc(C(F)(F)F)n2)c1 | -4.49 °C | -0.34 °C
22 | CS(=O)(=O)Nc1ccc(-c2coc3cc(OCc4cccc(C(=O)O)c4)ccc3c2=O)cc1 | 1.08 °C | -0.06 °C
23 | COc1cc(C)[nH]c(=O)c1CNC(=O)c1c(C)n([C@H](C)C2CCN(CC(F)(F)F)CC2)c2ccccc12 | -1.59 °C | 0.91 °C
24 | Cc1c(Nc2ccc(S(=O)(=O)N3CCN(C)CC3)cc2F)nc2ccc(-c3cnn(C4CC4)c3)cn2c1=O | 0.83 °C | -0.17 °C
25 | CCCN(CCC)c1ccc(C=O)cc1Br | -0.41 °C | 0.23 °C
26 | CC(C)C[C@@H](C=O)NC(=O)[C@@H](NS(=O)(=O)c1ccc(F)cc1)C(C)C | -1.65 °C | -0.07 °C
27 | Cc1ccc(C(=O)Nc2ccc(S(=O)(=O)O)c3cc(S(=O)(=O)O)cc(S(=O)(=O)O)c23)cc1NC(=O)c1cccc(NC(=O)Nc2cccc(C(=O)Nc3cc(C(=O)Nc4ccc(S(=O)(=O)O)c5cc(S(=O)(=O)O)cc(S(=O)(=O)O)c45)ccc3C)c2)c1 | -1.58 °C | -1.68 °C
28 | CC(=O)Nc1ccc(OC[C@](C)(O)C(=O)Nc2ccc([N+](=O)[O-])c(C(F)(F)F)c2)cc1 | 0.97 °C | 2.59 °C
29 | Cc1ncsc1-c1ccc([C@H](C)NC(=O)[C@@H]2C[C@@H](O)CN2C(=O)[C@@H](NC(=O)CNC(=O)c2ccc(F)c(-c3ccc(N4C[C@@H](C)N(C)[C@@H](C)C4)c(NC(=O)c4c[nH]c(=O)cc4C(F)(F)F)c3)c2)C(C)(C)C)cc1 | -0.15 °C | -4.38 °C
